From ChEMBL document CHEMBL1201862, “PubChem BioAssay data set” (2004)
Calls of active or inactive are those of the source. Cut-off read from the data, not from the text of the source: actives have a measured IC50 and inactives only a lower limit.

Molecular target: Envelope glycoprotein gp160 (Human immunodeficiency virus 1, UniProt Q6QLK5)
Experiment: cell-free HIV fusion peptide-binding blockers – biochemical, uHTS, fluorescence dequenching, […] (AID 1986)

Sequence of Envelope glycoprotein gp160 (Q6QLK5 whole entry, the tested form may be a part): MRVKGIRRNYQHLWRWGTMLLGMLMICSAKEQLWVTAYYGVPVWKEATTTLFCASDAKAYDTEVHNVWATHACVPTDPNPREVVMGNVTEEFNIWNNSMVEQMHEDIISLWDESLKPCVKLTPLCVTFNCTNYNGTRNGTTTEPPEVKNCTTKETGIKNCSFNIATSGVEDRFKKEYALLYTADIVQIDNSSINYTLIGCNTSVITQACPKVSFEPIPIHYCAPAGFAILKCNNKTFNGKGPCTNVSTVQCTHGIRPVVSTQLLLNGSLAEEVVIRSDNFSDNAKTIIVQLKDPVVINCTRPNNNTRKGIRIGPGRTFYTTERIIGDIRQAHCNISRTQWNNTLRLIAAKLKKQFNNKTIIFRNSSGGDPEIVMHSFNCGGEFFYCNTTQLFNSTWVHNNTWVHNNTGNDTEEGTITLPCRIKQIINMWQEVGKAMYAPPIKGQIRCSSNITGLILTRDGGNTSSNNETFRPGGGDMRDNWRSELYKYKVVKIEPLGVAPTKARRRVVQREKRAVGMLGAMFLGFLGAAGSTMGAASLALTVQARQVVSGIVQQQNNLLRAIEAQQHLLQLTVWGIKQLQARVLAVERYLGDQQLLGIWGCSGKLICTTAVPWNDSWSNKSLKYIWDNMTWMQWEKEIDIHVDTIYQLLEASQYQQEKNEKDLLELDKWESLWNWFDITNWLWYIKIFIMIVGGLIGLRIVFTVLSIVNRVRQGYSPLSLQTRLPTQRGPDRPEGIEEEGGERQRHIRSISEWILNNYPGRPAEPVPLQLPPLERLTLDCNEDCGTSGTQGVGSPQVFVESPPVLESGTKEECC

## COc1cc(/C=C2/C(=N)N3C(=NC2=O)SN=C3S(C)(=O)=O)ccc1OS(=O)(=O)c1ccccc1
  IC50: 19.8 µM (active)
